Measurements: patent US20080139534A1, “Bisbenzamidines and bisbenzamidoximes for the treatment of human African trypanosomiasis” (XAVIER UNIVERSITY OF LOUISIANA, priority 2006, published 2008)
Where two headings read alike, the source gives them in different places.

Assays:
[1] = system: T. b. brucei Lab 110 EATRO; experiment: In vitro trypanocidal activity, bloodforms in HMI-18 medium, Coulter counts; format: cell-based, Trypanosoma brucei brucei; conditions: read-out: Lab 100 EATRO IC50
Description: The compounds were tested against trypanosome isolates grown as blood forms in HMI-18 medium containing 20% horse serum in 24 well microplates at 37° C. in 5% CO2. Wells were inoculated with 1×10^5 trypanosomes. […] One-half the volume was replaced daily. Cell counts were made daily with a Coulter Counter, Model Z1 (Beckman Coulter, Miami, Fla., USA). Cells were diluted with Isoton I buffer (Beckman Coulter) and the aperture was standardized at 5.14 μm. Background checks were performed daily on 1:10 dilutions of medium. Counts, normalization, and coincident counts were accounted for by the standardized Coulter analysis program. Occasionally, hemocytometer counts were performed as a check on the validity of the Coulter program. IC50 values were determined after 48 h from semi-log plots and the values are the result of duplicate determinations. Initially a broad concentration curve was used and then a close concentration curve from which IC50 values were determined. Assays were done in duplicate and each point was the average of the two. Control cells grew to 5×10^6/ml.
Coulter counts were made daily and IC50 values determined after 48 hours exposure.

[2] = system: T. b. rhodesiense KETRI 243; experiment: as above; format: cell-based, Trypanosoma brucei rhodesiense; conditions: 48 h exposure
poly(dA-dT) = experiment: Thermal denaturation study, DNA binding affinity (ΔTm); conditions: 1:5 compound to base pair ratio;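 note: shift in the midpoint temperature of the thermal melting curve of poly(dA-dT), each value the mean of two or more independent determinations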
Description: (§1) The binding affinity was measured by determining the change in the midpoint (Tm) of the thermal denaturation curves of calf thymus DNA as well as poly(dA-dT) at a 1:5 compound to base pair ratio.

calf thymus DNA = experiment: as above; conditions: 1:5 compound to base pair ratio;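 note: shift in midpoint melting temperature of calf thymus DNA thermal denaturation curves caused by compound binding, values averaged over at least two determinations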
Description: as §1

## CC(=O)O/N=C(\N)c1ccc(NC(=O)CCCC(=O)Nc2ccc(/C(N)=N/OC(C)=O)cc2)cc1 [TH724, N,N′-bis[4-(N-acetoxyamidino)phenyl]pentanediamide]
other
  melting point: 225 to 228 °C

## Cc1nc(-c2ccc(NC(=O)CCCC(=O)Nc3ccc(-c4noc(C)n4)cc3)cc2)no1 [TH728, N,N′-Bis[4-(5-Methyl-1,2,4-oxadiazol-3yl)phenyl]pentanediamide]
other
  melting point: 235 to 237 °C

## CCCCCC(=O)ONC(=N)c1ccc(NC(=O)CCCC(=O)Nc2ccc(C(=N)NOC(=O)CCCCC)cc2)cc1 [TH742, N,N′-Bis[4-(N-Pentylcarbonyloxyamidino)phenyl]pentanediamide]
other
  melting point: 182 to 184 °C

## CCCCCc1nc(-c2ccc(NC(=O)CCCC(=O)Nc3ccc(-c4noc(CCCCC)n4)cc3)cc2)no1 [TH743, N,N′-Bis[4-(5-Pentyl-1,2,4-oxadiazol-3yl)phenyl]pentanediamide]
other
  melting point: 171 to 173 °C

## C=CCCc1nc(-c2ccc(NC(=O)CCCC(=O)Nc3ccc(-c4noc(CCC=C)n4)cc3)cc2)no1 [TH745, N,N′-Bis[4-(5-3,4-Butene-1,2,4-oxadiazol-3yl)phenyl]pentanediamide]
other
  melting point: 168 to 170 °C

## N/C(=N\OC(=O)c1ccccc1)c1ccc(NC(=O)CCCC(=O)Nc2ccc(/C(N)=N/OC(=O)c3ccccc3)cc2)cc1 [TH746, N,N′-Bis[4-(N-Phenylcarbonyloxyamidino)phenyl]pentanediamide]
other
  melting point: 253 to 255 °C

## O=C(CCCC(=O)Nc1ccc(-c2noc(-c3ccccc3)n2)cc1)Nc1ccc(-c2noc(-c3ccccc3)n2)cc1 [TH747, N,N′-Bis[4-(5-Phenyl-1,2,4-oxadiazol-3yl)phenyl]pentanediamide]
other
  melting point: 255 to 257 °C

## C(=NNc1ccccc1)c1ccc(N2CCN(c3ccc(C=NNc4ccccc4)cc3)CC2)cc1 [compound 0116]
[1]; 48 h exposure, bloodforms
  IC50: 1740 nM
[2]
  IC50: 1870 nM
poly(dA-dT)
  DNA Binding Δ Tm Poly (dA-dT): 0.0 °C
Calf thymus DNA
  DNA Binding Δ Tm Calf thymus: −0.2 °C

## NNC(=O)c1ccc(N2CCN(c3ccc(C(=O)NN)cc3)CC2)cc1 [compound 0117, 4,4′-(1,4-Piperazinediyl)bisbenzenecarboxhydrazide]
[1]; Trypanosoma brucei, 48 h
  IC50: 240 nM
poly(dA-dT)
  DNA Binding Δ Tm Poly (dA-dT): 0.0 °C
Calf thymus DNA
  DNA Binding Δ Tm Calf thymus: 0.1 °C
other
  melting point: > 300 °C

## CCOC(=O)c1ccc(N2CCN(c3ccc(C(=O)OCC)cc3)CC2)cc1 [compound 0118]
[1]; 48 h exposure, bloodforms
  IC50: 340 nM
[2]
  IC50: 350 nM
poly(dA-dT)
  DNA Binding Δ Tm Poly (dA-dT): 0.0 °C
Calf thymus DNA
  DNA Binding Δ Tm Calf thymus: 0.6 °C

## O=[N+]([O-])c1ccc(N2CCN(c3ccc([N+](=O)[O-])cc3)CC2)cc1 [compound 0119]
[1]; 48 h exposure, bloodforms
  IC50: 137 nM
[2]
  IC50: 250 nM
poly(dA-dT)
  DNA Binding Δ Tm Poly (dA-dT): 0.0 °C
Calf thymus DNA
  DNA Binding Δ Tm Calf thymus: 0.1 °C

## CC(=O)c1ccc(N2CCN(c3ccc(C(C)=O)cc3)CC2)cc1 [compound 0123]
[1]; 48 h exposure, bloodforms
  IC50: 2350 nM
[2]
  IC50: 1550 nM
poly(dA-dT)
  DNA Binding Δ Tm Poly (dA-dT): 0.0 °C
Calf thymus DNA
  DNA Binding Δ Tm Calf thymus: 0.1 °C

## Cl.Cl.c1cc(N2CCN(c3ccc(C4=NCCN4)cc3)CC2)ccc1C1=NCCN1 [compound 0126]
[1]; 48 h exposure, bloodforms
  IC50: 16 nM
[2]
  IC50: 6.5 nM
poly(dA-dT)
  DNA Binding Δ Tm Poly (dA-dT): 19.4 °C
Calf thymus DNA
  DNA Binding Δ Tm Calf thymus: 15.0 °C
